Assays:
Assay type in all cases: cell-based
CFTR ΔF508 mutant [1] = biological target: T1, CFTR ΔF508 mutant (Homo sapiens, UniProt P13569, DEL508-508); assay: YFP-halide influx assay for the CFTR-ΔF508 mutation (96 well, CFBE41o- cells); conditions: compounds of the invention, 96 well, forskolin 10.67 μM, read-out: EC50 measured by YFP-halide influx assay for the CFTR-ΔF508
T1 construct: expressed in transfected cells; host or cells: CFBE41o- (adenoviral transduction)
Procedure, shortened: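 CFBE41o- cells were adenovirally transduced with CFTR ΔF508 and the halide-sensitive YFP H148Q/I152L. They were then corrected either at 27 °C for 24 h or with a CFTR modulator for 24 h at 37 °C. After iodide injection, YFP quenching over 7 s was expressed as 1−F/F0, and EC50 was derived from the concentration–response plot.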

CFTR-S549N = biological target: T2, CFTR-S549N (Homo sapiens, UniProt P13569, S549N); assay: YFP-halide influx assay for the CFTR-S549N; conditions: CFTR-S549N mutant; read-out: EC50 measured by YFP-halide influx assay for the CFTR-S549N
T2 construct: expressed in transfected cells
Text: (§1) The YFP halide influx assay measures the functionality of the cystic fibrosis Transmembrane Conductance regulator (CFTR) channels. The assay is used to evaluate the capacity of compounds to increase the channel opening of existing mutant CFTR channels in the membrane. It makes use of the observation that the yellow fluorescent protein (YFP) variant YFP H148Q, I152L, F47L has its fluorescence substantially quenched by halide ions like Cl^− and I^−. (Galietta et al., 2001)
(§2) For this purpose, HEK293-cells are seeded in 96 well plates. During seeding, the cells are reverse-transfected with plasmid vectors that direct the expression of the CFTR G551D mutant and of the YFP reporter. Cells are incubated at 37° C., 5% CO2 for 24 hours so as to allow for sufficient expression of the CFTR protein.
(§3) The I^−-induced quenching of fluorescence is recorded immediately after injection of I^− for 7 seconds. The capacity of a compound to increase the channel opening is directly correlated with the decrease in fluorescence, and is expressed as (1−(fluorescence after 7 seconds (F)/fluorescence before injection (F0))) and an EC50 can be derived from a (1−F/F0) vs compound concentration plot.
(§4) Similar YHA assays were developed for other channel gating defective or channel conductance defective CFTR mutants to determine effect of compound on channel activity. Examples of mutants are G178R, G1349D, S549N, R117H, R334W. This assay is also used for additional class I CFTR mutants, including G542X, W1282X; class II mutants including N1303K, and for class III mutants including S1251N; or wild-type CFTR.

CFTR-R117H = biological target: T3, CFTR-R117H (Homo sapiens, UniProt P13569, R117H); assay: YFP-halide influx assay for the CFTR-R117H; conditions: CFTR-R117H mutant; read-out: EC50 measured by YFP-halide influx assay for the CFTR-R117H
T3 construct: expressed in transfected cells
Text: as §1, §2, §3, §4

CFTR G551D mutant = biological target: T4, CFTR G551D mutant (Homo sapiens, UniProt P13569, G551D); assay: YFP-halide influx assay for the CFTR-G551D mutation (HEK293 cells); conditions: HEK293 cells expressing CFTR G551D and YFP reporter; forskolin 10.67 μM; read-out: EC50 measured by YFP-halide influx assay for the CFTR-G551D
T4 construct: expressed in transfected cells; host or cells: HEK293 (reverse transfection with plasmids)
Procedure, shortened: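 HEK293 cells reverse-transfected with CFTR G551D and halide-sensitive YFP, expressed 24 h at 37 °C. Iodide-induced fluorescence quench recorded for 7 s after I^− injection; response as 1−F/F0, EC50 from concentration plot.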

CFTR-G1349D = biological target: T5, CFTR-G1349D (Homo sapiens, UniProt P13569, G1349D); assay: YFP-halide influx assay for the CFTR-G1349D; conditions: CFTR-G1349D mutant; read-out: EC50 measured by YFP-halide influx assay for the CFTR-G1349D
T5 construct: expressed in transfected cells
Text: as §1, §2, §3, §4

CFTR ΔF508 mutant [2] = biological target: T1, CFTR ΔF508 mutant; assay: YFP-halide influx assay for the CFTR-ΔF508 mutation (384 well, CFBE41o- cells, FDSS/μCell); conditions: forskolin 10.67 μM, fluorescence after 36 seconds, read-out: EC50 measured by YFP-halide influx assay for the CFTR-ΔF508
Procedure, shortened: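 CFBE41o- cells were adenovirally transduced with ΔF508 CFTR and the YFP H148Q/I152L reporter. Cells were then held 24 h at 27 °C or treated 24 h at 37 °C with a CFTR modulator. Iodide-induced quench was recorded for 2 min, and EC50 was derived from 1−F/F0 at 36 s against compound concentration.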

CFTR-G178R = biological target: T6, CFTR-G178R (Homo sapiens, UniProt P13569, G178R); assay: YFP-halide influx assay for the CFTR-G178R; conditions: read-out: EC50 measured by YFP-halide influx assay for the CFTR-G178R
T6 construct: expressed in transfected cells
Text: as §1, §2, §3, §4

T3 sequence (P13569 whole entry R117H): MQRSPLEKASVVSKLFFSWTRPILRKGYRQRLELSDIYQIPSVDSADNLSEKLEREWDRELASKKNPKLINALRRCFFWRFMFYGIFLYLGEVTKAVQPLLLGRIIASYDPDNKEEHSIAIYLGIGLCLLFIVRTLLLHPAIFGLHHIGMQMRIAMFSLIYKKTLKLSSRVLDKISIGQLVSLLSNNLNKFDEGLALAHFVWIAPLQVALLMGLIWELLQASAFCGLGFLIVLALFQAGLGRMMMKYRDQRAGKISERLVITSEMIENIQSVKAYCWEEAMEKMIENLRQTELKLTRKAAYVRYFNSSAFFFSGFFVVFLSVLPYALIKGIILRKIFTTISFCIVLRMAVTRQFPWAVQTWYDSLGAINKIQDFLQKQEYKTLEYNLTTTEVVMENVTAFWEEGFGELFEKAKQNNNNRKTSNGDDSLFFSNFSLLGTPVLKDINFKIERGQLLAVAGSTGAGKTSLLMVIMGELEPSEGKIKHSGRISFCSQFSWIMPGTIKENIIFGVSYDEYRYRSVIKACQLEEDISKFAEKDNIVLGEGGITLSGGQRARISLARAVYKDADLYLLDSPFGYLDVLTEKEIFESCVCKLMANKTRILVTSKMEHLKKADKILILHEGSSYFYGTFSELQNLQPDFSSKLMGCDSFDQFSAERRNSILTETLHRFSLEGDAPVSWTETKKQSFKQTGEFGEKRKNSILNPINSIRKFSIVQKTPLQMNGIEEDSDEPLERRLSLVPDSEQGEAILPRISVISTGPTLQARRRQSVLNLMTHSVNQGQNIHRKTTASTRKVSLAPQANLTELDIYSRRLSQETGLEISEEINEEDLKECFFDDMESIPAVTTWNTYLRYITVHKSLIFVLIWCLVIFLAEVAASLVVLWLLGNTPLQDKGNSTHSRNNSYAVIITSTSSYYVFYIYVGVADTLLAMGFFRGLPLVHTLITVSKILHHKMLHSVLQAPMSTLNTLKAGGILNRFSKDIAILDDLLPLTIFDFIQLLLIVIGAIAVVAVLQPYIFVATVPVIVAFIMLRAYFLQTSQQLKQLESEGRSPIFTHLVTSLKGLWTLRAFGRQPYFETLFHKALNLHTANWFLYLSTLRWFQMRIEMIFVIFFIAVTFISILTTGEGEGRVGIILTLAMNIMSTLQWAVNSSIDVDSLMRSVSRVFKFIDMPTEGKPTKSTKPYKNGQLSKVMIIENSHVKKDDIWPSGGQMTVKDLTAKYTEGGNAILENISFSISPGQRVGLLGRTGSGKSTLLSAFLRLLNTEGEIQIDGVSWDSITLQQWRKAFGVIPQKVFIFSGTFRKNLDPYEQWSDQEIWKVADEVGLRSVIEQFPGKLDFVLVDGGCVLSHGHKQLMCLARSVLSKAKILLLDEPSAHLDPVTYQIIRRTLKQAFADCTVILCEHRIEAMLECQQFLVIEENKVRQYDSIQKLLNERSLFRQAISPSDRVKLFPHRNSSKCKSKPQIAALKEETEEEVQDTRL
T6 sequence (P13569 whole entry G178R): as the sequence (P13569 whole entry R117H) above, with H117R, G178R counted along it
T4 sequence (P13569 whole entry G551D): as the sequence (P13569 whole entry R117H) above, with H117R, G551D counted along it
T1 sequence (P13569 with tags, fused parts or gaps DEL508-508): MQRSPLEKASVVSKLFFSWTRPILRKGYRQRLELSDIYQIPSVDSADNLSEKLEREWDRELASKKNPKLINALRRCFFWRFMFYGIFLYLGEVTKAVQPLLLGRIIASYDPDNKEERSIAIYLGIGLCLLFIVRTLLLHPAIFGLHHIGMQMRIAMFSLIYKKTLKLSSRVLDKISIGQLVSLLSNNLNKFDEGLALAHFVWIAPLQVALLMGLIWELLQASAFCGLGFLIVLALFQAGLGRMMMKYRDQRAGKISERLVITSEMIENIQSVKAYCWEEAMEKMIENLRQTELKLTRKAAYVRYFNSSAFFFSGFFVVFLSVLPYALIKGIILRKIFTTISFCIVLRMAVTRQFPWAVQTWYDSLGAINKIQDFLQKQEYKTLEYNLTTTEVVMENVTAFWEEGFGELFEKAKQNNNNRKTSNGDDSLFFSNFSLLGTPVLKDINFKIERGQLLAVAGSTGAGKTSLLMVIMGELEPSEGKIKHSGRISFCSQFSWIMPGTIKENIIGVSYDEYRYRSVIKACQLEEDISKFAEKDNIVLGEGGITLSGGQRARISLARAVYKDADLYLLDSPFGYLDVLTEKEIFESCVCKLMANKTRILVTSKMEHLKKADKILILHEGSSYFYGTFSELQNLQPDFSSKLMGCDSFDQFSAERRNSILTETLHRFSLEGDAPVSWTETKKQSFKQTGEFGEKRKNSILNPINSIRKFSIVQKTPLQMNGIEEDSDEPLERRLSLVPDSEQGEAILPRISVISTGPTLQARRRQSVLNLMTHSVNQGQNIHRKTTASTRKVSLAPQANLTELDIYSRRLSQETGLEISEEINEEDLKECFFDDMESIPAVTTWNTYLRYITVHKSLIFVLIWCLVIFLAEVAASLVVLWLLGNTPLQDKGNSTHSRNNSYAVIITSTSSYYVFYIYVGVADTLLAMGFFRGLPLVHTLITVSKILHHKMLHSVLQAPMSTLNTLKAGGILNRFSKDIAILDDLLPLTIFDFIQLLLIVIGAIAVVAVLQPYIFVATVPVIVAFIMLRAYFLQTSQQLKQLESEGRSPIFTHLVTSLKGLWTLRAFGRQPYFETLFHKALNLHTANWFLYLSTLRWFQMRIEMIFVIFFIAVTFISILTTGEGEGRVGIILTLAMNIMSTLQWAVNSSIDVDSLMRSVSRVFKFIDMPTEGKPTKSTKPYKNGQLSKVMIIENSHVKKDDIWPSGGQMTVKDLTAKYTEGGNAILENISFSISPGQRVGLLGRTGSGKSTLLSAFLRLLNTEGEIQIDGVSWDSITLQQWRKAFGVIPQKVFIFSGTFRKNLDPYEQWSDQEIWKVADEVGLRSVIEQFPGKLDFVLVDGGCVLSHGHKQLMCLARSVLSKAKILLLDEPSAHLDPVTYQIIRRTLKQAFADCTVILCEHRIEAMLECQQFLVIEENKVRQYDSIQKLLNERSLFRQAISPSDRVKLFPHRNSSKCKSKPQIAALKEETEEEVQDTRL
T5 sequence (P13569 whole entry G1349D): as the sequence (P13569 whole entry R117H) above, with H117R, G1349D counted along it
T2 sequence (P13569 whole entry S549N): as the sequence (P13569 whole entry R117H) above, with H117R, S549N counted along it

SMILES | EC50 (CFTR ΔF508 mutant [1]) | EC50 (CFTR-S549N) | EC50 (CFTR-R117H) | EC50 (CFTR G551D mutant) | EC50 (CFTR-G1349D) | EC50 (CFTR ΔF508 mutant [2]) | EC50 (CFTR-G178R)
CC1(C)Cc2c(sc(NC(=O)c3cc(C4CC4)[nH]n3)c2C(N)=O)C(C)(C)O1 [Compound 13, N-(3-carbamoyl-5,5,7,7-tetramethyl-5,7-dihydro-4H-thieno[2,3-c]pyran-2-yl)-5-cyclopropyl-1H-pyrazole-3-carboxamide] | 17.9 nM | 158 nM | 177 nM | 198 nM | 75.3 nM | 6.13 nM | 98.8 nM
CC(C)c1cc(C(=O)Nc2sc3c(c2C(N)=O)CC(C)(C)OC3(C)C)n[nH]1 [Compound 14, N-(3-carbamoyl-5,5,7,7-tetramethyl-5,7-dihydro-4H-thieno[2,3-c]pyran-2-yl)-5-isopropyl-1H-pyrazole-3-carboxamide] | 32.2 nM | 253 nM | 207 nM | 377 nM | 371 nM | 9.44 nM | 169 nM
CC1(C)Cc2c(sc(NC(=O)c3cc(C(F)(F)F)[nH]n3)c2C(N)=O)C(C)(C)O1 [Compound 15, N-(3-carbamoyl-5,5,7,7-tetramethyl-5,7-dihydro-4H-thieno[2,3-c]pyran-2-yl)-5-(trifluoromethyl)-1H-pyrazole-3-carboxamide] | 7.56 nM | 208 nM | 158 nM | 77.5 nM | 75.3 nM | 2.72 nM | 87.5 nM
CC1(C)Cc2c(sc(NC(=O)c3n[nH]cc3Br)c2C(N)=O)C(C)(C)O1 [Compound 33, 4-bromo-N-(3-carbamoyl-5,5,7,7-tetramethyl-5,7-dihydro-4H-thieno[2,3-c]pyran-2-yl)-1H-pyrazole-3-carboxamide] | 4 nM | 164 nM | 165 nM | 92 nM | 116 nM | 6.93 nM | 88.6 nM
CC1(C)Cc2c(sc(NC(=O)C(O)C(C)(C)C)c2C(N)=O)C(C)(C)O1 (stereo not shown) [Compound 38, 2-(2-hydroxy-3,3-dimethylbutanamido)-5,5,7,7-tetramethyl-5,7-dihydro-4H-thieno[2,3-c]pyran-3-carboxamide] | 5 nM | 690 nM | 64.3 nM | – | 517 nM | 5.99 nM | 96.8 nM
CC(C)C(O)C(=O)Nc1sc2c(c1C(N)=O)CC(C)(C)OC2(C)C (stereo not shown) [Compound 39, 2-(2-hydroxy-3-methylbutanamido)-5,5,7,7-tetramethyl-5,7-dihydro-4H-thieno[2,3-c]pyran-3-carboxamide] | 6 nM | 1100 nM | 145 nM | – | 1340 nM | 4.51 nM | 1360 nM
CC1(C)Cc2c(sc(NC(=O)C3(CO)CCC3)c2C(N)=O)C(C)(C)O1 [Compound 40, 2-(1-(hydroxymethyl)cyclobutanecarboxamido)-5,5,7,7-tetramethyl-5,7-dihydro-4H-thieno[2,3-c]pyran-3-carboxamide] | 32 nM | 1930 nM | 2900 nM | – | 1910 nM | 35.6 nM | > 3330 nM
COCc1cc(C(=O)Nc2sc3c(c2C(N)=O)CC(C)(C)OC3(C)C)n[nH]1 [Compound 42, N-(3-carbamoyl-5,5,7,7-tetramethyl-5,7-dihydro-4H-thieno[2,3-c]pyran-2-yl)-5-(methoxymethyl)-1H-pyrazole-3-carboxamide] | 12.2 nM | 508 nM | 193 nM | – | 678 nM | 15.3 nM | 156 nM
CCOCCc1c[nH]nc1C(=O)Nc1sc2c(c1C(N)=O)CC(C)(C)OC2(C)C [Compound 72, N-(3-carbamoyl-5,5,7,7-tetramethyl-4H-thieno[2,3-c]pyran-2-yl)-4-(2-ethoxyethyl)-1H-pyrazole-3-carboxamide] | – | 122 nM | 147 nM | 368 nM | 64 nM | 17.9 nM | 31.4 nM
CC1(C)Cc2c(sc(NC(=O)[C@@H](O)C(C)(C)C)c2C(N)=O)C(C)(C)O1 [Compound 76, 2-[[(2S)-2-hydroxy-3,3-dimethyl-butanoyl]amino]-5,5,7,7-tetramethyl-4H-thieno[2,3-c]pyran-3-carboxamide] | – | 31.5 nM | 15.3 nM | 412 nM | 24.4 nM | 2.17 nM | 14.1 nM

Second part, the molecule after the results:

EC50 (CFTR ΔF508 mutant [1]) | EC50 (CFTR-S549N) | EC50 (CFTR-R117H) | EC50 (CFTR G551D mutant) | EC50 (CFTR-G1349D) | EC50 (CFTR ΔF508 mutant [2]) | EC50 (CFTR-G178R) | SMILES
– | 1450 nM | 1010 nM | 7780 nM | 1310 nM | 127 nM | 2210 nM | CC1(C)Cc2c(sc(NC(=O)[C@H](O)C(C)(C)C)c2C(N)=O)C(C)(C)O1 [Compound 77, 2-[[(2R)-2-hydroxy-3,3-dimethyl-butanoyl]amino]-5,5,7,7-tetramethyl-4H-thieno[2,3-c]pyran-3-carboxamide]
– | 345 nM | 147 nM | 541 nM | 672 nM | 30.1 nM | 67.6 nM | CC1(C)Cc2c(sc(NC(=O)c3n[nH]cc3C3=COCCO3)c2C(N)=O)C(C)(C)O1 [Compound 94, N-(3-carbamoyl-5,5,7,7-tetramethyl-4H-thieno[2,3-c]pyran-2-yl)-4-(2,3-dihydro-1,4-dioxin-5-yl)-1H-pyrazole-3-carboxamide]
– | 73 nM | 26.7 nM | 5110 nM | 54.7 nM | 2.62 nM | 41.5 nM | CC1(C)Cc2c(sc(NC(=O)[C@@H](O)CC3CC3)c2C(N)=O)C(C)(C)O1 [Compound 98, 2-[[(2S)-3-cyclopropyl-2-hydroxy-propanoyl]amino]-5,5,7,7-tetramethyl-4H-thieno[2,3-c]pyran-3-carboxamide]
– | 947 nM | 1120 nM | 1360 nM | 888 nM | 26.8 nM | 347 nM | CC(C)OCCOc1c[nH]nc1C(=O)Nc1sc2c(c1C(N)=O)CC(C)(C)OC2(C)C [Compound 101, N-(3-carbamoyl-5,5,7,7-tetramethyl-4H-thieno[2,3-c]pyran-2-yl)-4-(2-isopropoxyethoxy)-1H-pyrazole-3-carboxamide]
– | 21.8 nM | 11.7 nM | 981 nM | 200 nM | 0.54 nM | 26 nM | CC(C)(C)CC(O)C(=O)Nc1sc2c(c1C(N)=O)CC(C)(C)OC2(C)C (stereo not shown) [Compound 106, 2-[(2-hydroxy-4,4-dimethyl-pentanoyl)amino]-5,5,7,7-tetramethyl-4H-thieno[2,3-c]pyran-3-carboxamide]
– | 599 nM | 724 nM | 1000 nM | 536 nM | 18.7 nM | 466 nM | CC1(C)Cc2c(sc(NC(=O)c3ccn(CC(F)(F)F)n3)c2C(N)=O)C(C)(C)O1 [Compound 121, N-(3-carbamoyl-5,5,7,7-tetramethyl-4H-thieno[2,3-c]pyran-2-yl)-1-(2,2,2-trifluoroethyl)pyrazole-3-carboxamide]
– | 3330 nM | 780 nM | 971 nM | 464 nM | 20.1 nM | 221 nM | CC1(C)Cc2c(sc(NC(=O)c3ccnn3CC(F)(F)F)c2C(N)=O)C(C)(C)O1 [Compound 151, N-(3-carbamoyl-5,5,7,7-tetramethyl-4H-thieno[2,3-c]pyran-2-yl)-2-(2,2,2-trifluoroethyl)pyrazole-3-carboxamide]

— patent publication US9351955B2, “Compounds and pharmaceutical compositions thereof for the treatment of cystic fibrosis” (Galapagos NV, priority 2013, dated 2016)
